# Experimental data published in ChEMBL document CHEMBL1126862, “Substituted 3-phenylpiperidines: new centrally acting dopamine autoreceptor antagonists” (J Med Chem, 1993).
# Legend:
# Rattus norvegicus [1] = organism: Rattus norvegicus; assay: Evaluated for rat locomotor activity in nonpretreated habituated rats at 100 umol / kg; assay type: functional; design: unit not given beside the values
# Rattus norvegicus [2] = assay: Evaluated for DOPA accumulation in striatum of nonpretreated rat at 100 umol / kg administered subcutaneously; assay type: functional
# Rattus norvegicus [3] = assay: Evaluated in rat accumbens for the effect on dopamine release and metabolism in brain dialysis model after administration of 50 umol / kg subcutaneously; assay type: functional
# Rattus norvegicus [4] = assay: Evaluated for DOPA accumulation in striatum of reserpine pretreated rat at 100 umol / kg administered intraperitoneally; assay type: functional
# D(2) dopamine receptor [5] = biological target: T1, D(2) dopamine receptor (Bos taurus, UniProt P20288); assay: Binding towards Dopamine receptor D2 expressed in CHO-K1 cells using [3H]U-86170; assay type: cell-based
# T1 sequence (P20288 whole entry): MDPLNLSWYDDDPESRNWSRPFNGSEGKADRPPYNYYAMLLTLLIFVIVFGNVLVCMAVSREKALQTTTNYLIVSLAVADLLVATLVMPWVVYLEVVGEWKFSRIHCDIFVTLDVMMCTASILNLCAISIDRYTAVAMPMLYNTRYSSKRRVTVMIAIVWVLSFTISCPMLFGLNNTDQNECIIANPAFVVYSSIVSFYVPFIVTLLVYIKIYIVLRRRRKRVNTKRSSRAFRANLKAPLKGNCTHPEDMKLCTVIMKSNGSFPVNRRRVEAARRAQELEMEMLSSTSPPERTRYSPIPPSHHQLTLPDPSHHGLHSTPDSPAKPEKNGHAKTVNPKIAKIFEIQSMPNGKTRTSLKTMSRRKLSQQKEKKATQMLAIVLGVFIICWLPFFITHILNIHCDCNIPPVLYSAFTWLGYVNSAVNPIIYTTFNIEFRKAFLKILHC
# Rattus norvegicus [6] = assay: Evaluated for 5-HTP increase in limbic region of nonpretreated rat at 100 umol / kg administered subcutaneously; assay type: functional, Limbic system
# D(2) dopamine receptor [7] = biological target: T2, D(2) dopamine receptor (Rattus norvegicus, UniProt P61169); assay: Evaluated for binding towards Dopamine receptor D2 using [3H]N-0437 as radioligand from rat striatal membrane
# T2 sequence (P61169 whole entry): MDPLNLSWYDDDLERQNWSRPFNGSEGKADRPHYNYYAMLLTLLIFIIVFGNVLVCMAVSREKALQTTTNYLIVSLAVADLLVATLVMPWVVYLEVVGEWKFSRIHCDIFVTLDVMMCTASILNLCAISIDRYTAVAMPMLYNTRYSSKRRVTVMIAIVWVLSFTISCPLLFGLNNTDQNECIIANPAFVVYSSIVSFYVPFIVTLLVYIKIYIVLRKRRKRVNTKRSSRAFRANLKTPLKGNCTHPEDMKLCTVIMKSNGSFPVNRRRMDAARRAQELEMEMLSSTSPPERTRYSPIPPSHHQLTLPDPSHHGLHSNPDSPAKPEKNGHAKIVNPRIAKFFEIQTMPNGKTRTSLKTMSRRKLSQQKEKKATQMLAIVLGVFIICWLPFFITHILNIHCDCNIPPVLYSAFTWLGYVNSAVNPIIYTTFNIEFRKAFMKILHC
# D(4) dopamine receptor [8] = biological target: T3, D(4) dopamine receptor (Homo sapiens, UniProt P21917); conditions: cho-k1
# T3 sequence (P21917 whole entry): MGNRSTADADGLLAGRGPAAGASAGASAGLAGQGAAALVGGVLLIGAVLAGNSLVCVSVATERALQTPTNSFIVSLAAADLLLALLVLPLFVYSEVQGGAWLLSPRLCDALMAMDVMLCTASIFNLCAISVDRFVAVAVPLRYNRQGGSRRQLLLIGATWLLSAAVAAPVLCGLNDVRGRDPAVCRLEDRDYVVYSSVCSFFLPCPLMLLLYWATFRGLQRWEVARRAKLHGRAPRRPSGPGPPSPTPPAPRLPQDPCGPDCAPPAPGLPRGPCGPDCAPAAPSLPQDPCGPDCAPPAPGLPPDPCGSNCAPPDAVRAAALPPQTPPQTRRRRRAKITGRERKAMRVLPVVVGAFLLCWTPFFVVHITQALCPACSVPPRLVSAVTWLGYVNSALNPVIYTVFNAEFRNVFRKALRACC
# Description: (§1) Binding towards dopamine receptor D4 expressed in CHO-K1 cells using [3H]spiperone
# Rattus norvegicus [9] = assay: Evaluated for DOPA accumulation in limbic region of nonpretreated rat at 25 umol / kg administered subcutaneously; assay type: functional, Limbic system
# D(2) dopamine receptor [10] = biological target: T1, D(2) dopamine receptor; assay: Evaluated for binding towards Dopamine receptor D2 using [3H]-spiperone as radioligand, in cloned mammalian receptors expressed in CHO-K1 cells; assay type: cell-based
# Rattus norvegicus [11] = organism: Rattus norvegicus; assay: Evaluated for rat locomotor activity in nonpretreated habituated rats at 25 umol / kg; assay type: functional
# Rattus norvegicus [12] = assay: Evaluated for DOPA accumulation in striatum of nonpretreated rat at 25 umol / kg administered subcutaneously; assay type: functional
# Rattus norvegicus [13] = assay: Evaluated for DOPA accumulation in limbic region of nonpretreated rat at 100 umol / kg administered subcutaneously; assay type: functional, Limbic system
# Rattus norvegicus [14] = organism: Rattus norvegicus; assay: Rat locomotor activity in reserpine pretreated rats and accumulated counts / 30 min is calculated; assay type: functional
# Rattus norvegicus [15] = assay: Evaluated for DOPA accumulation in limbic region of reserpine pretreated rat at 52 umol / kg administered subcutaneously; assay type: functional, Limbic system
# D(2) dopamine receptor [16] = biological target: T2, D(2) dopamine receptor; assay: Binding towards Dopamine receptor D2 using [3H]spiperone from rat striatal membrane
# D(3) dopamine receptor = D(3) dopamine receptor (Homo sapiens, UniProt P35462)
# D(3) dopamine receptor, sequence (P35462 whole entry): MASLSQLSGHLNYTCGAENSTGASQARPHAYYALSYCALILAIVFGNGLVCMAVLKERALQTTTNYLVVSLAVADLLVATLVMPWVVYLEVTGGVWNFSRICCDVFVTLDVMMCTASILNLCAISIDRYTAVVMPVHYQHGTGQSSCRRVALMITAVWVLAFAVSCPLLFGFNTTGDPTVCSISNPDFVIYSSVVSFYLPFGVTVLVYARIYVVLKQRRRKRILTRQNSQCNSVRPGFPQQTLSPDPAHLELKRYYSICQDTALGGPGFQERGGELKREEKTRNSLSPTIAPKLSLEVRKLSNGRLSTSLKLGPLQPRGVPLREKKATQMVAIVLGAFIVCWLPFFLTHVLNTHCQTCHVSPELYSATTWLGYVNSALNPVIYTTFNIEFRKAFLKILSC
# Description: Binding towards Dopamine receptor D3 expressed in CHO-K1 cells using [3H]spiperone
# Rattus norvegicus [17] = assay: Evaluated in rat striatum for the effect on DOPAC release and metabolism in brain dialysis model after administration of 50 umol / kg subcutaneously; assay type: functional; design: unit not given beside the values
# [18] = biological target: Sigma non-opioid intracellular receptor 1 (Rattus norvegicus, UniProt Q9R0C9); assay: Binding effinity for sigma receptor using 2 nM of [3H]DTG as radioligand, in membranes from brain minus cerebellum; assay type: tissue-based
# Sigma non-opioid intracellular receptor 1, sequence (Q9R0C9 whole entry): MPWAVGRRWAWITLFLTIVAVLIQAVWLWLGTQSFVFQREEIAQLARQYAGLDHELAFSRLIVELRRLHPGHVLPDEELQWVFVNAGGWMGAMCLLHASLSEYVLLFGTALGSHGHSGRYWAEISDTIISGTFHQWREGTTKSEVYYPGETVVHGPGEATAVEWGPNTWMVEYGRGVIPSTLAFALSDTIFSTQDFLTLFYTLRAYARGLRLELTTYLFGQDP
# Rattus norvegicus [19] = assay: Evaluated in rat striatum for the effect on dopamine release and metabolism in brain dialysis model after administration of 50 umol / kg subcutaneously; assay type: functional; design: unit not given beside the values
# Rattus norvegicus [20] = organism: Rattus norvegicus; assay: Evaluated for rat locomotor activity in nonhabituated rats at 25 umol / kg; assay type: functional
# Rattus norvegicus [21] = assay: Evaluated for rat locomotor activity in nonhabituated rats at 213 umol / kg administered subcutaneously; assay type: functional
# Rattus norvegicus [22] = assay: Evaluated for DOPA accumulation in limbic region of reserpine pretreated rat at 100 umol / kg administered intraperitoneally; assay type: functional, Limbic system
# D(4) dopamine receptor [23] = biological target: T3, D(4) dopamine receptor
# Description: as §1
# Rattus norvegicus [24] = assay: Evaluated for DOPA accumulation in limbic region of nonpretreated rat at 52 umol / kg administered subcutaneously; assay type: functional, Limbic system
# Rattus norvegicus [25] = assay: Evaluated for 5-HTP increase in hemisphere region of nonpretreated rat at 100 umol / kg administered subcutaneously; assay type: functional
# Rattus norvegicus [26] = assay: Evaluated for 5-HTP increase in limbic region of nonpretreated rat at 52 umol / kg administered subcutaneously; assay type: functional, Limbic system
# Rattus norvegicus [27] = assay: Evaluated for DOPA accumulation in striatum of nonpretreated rat at 52 umol / kg administered subcutaneously; assay type: functional
# Rattus norvegicus [28] = assay: Evaluated for DOPA accumulation in striatum of nonpretreated rat at 100 umol / kg administered subcutaneously (p<0.05); assay type: functional
# Rattus norvegicus [29] = organism: Rattus norvegicus; assay: Evaluated for rat locomotor activity in nonpretreated habituated rats at 100 umol / kg (p<0.05); assay type: functional
# Rattus norvegicus [30] = assay: Evaluated for 5-HTP increase in hemisphere region of nonpretreated rat at 100 umol / kg administered subcutaneously (p<0.05); assay type: functional
# Rattus norvegicus [31] = organism: Rattus norvegicus; assay: Evaluated for rat locomotor activity in nonhabituated rats at 100 umol / kg; assay type: functional
# Rattus norvegicus [32] = organism: Rattus norvegicus; assay: Evaluated for rat locomotor activity in nonpretreated habituated rats at 25 umol / kg (p<0.05); assay type: functional
# Rattus norvegicus [33] = assay: Evaluated for DOPA accumulation in limbic region of reserpine pretreated rat at 100 umol / kg administered intraperitoneally (p<0.05); assay type: functional, Limbic system
# Rattus norvegicus [34] = organism: Rattus norvegicus; assay: Rat locomotor activity in reserpine pretreated rats and accumulated counts / 30 min; assay type: functional
# Rattus norvegicus [35] = assay: Evaluated for DOPA accumulation in limbic region of nonpretreated rat at 100 umol / kg administered subcutaneously (p<0.05); assay type: functional, Limbic system
structure (smiles),measurement,setting,value
"CCCN1CCCC(c2cccc(C#N)c2)C1 (single isomer, unassigned; (-))",Activity,Rattus norvegicus [1],719
same,Activity,Rattus norvegicus [2],268
same,Activity,Rattus norvegicus [3],294
same,Activity,Rattus norvegicus [4],105
same,Ki,D(2) dopamine receptor [5],119 nM
same,Activity,Rattus norvegicus [6],148
same,Ki,D(2) dopamine receptor [7],396 nM
same,Ki,D(4) dopamine receptor [8],> 933 nM
same,Activity,Rattus norvegicus [9],204
same,Ki,D(2) dopamine receptor [10],889 nM
same,Activity,Rattus norvegicus [11],418
same,Activity,Rattus norvegicus [12],285
same,Activity,Rattus norvegicus [13],219
same,Activity,Rattus norvegicus [14],12
same,Activity,Rattus norvegicus [15],136
same,Ki,D(2) dopamine receptor [16],1140 nM
same,Ki,D(3) dopamine receptor,249 nM
same,Activity,Rattus norvegicus [17],299
same,IC50,[18],2200 nM
same,Activity,Rattus norvegicus [19],295
"CCCN1CCCC(c2cccc(O)c2)C1 (single isomer, unassigned; (+))",Activity,Rattus norvegicus [20],75
same,Activity,Rattus norvegicus [21],230
same,Ki,D(2) dopamine receptor [5],32 nM
same,Activity,Rattus norvegicus [9],37
same,Activity,Rattus norvegicus [22],18
same,Ki,D(2) dopamine receptor [10],776 nM
same,Activity,Rattus norvegicus [12],43
same,Ki,D(4) dopamine receptor [23],> 1000 nM
same,Activity,Rattus norvegicus [14],78
same,Activity,Rattus norvegicus [17],42
same,Activity,Rattus norvegicus [19],28
CCCN1CCCC(c2cccc(C#N)c2)C1 (racemic),Activity,Rattus norvegicus [24],198
same,Activity,Rattus norvegicus [25],103
same,Activity,Rattus norvegicus [26],99
same,Activity,Rattus norvegicus [27],281
CCCN1CCC[C@H](c2cccc(OS(=O)(=O)C(F)(F)F)c2)C1,Activity,Rattus norvegicus [28],80
same,Activity,Rattus norvegicus [20],115
same,Activity,Rattus norvegicus [29],34
same,Activity,Rattus norvegicus [30],86
same,Activity,Rattus norvegicus [31],95
same,Activity,Rattus norvegicus [32],30
same,Activity,Rattus norvegicus [4],80
same,Activity,Rattus norvegicus [6],86
same,Activity,Rattus norvegicus [9],93
same,Activity,Rattus norvegicus [33],75
same,Activity,Rattus norvegicus [12],92
same,Activity,Rattus norvegicus [34],2
same,Activity,Rattus norvegicus [35],82
same,IC50,[18],6 nM
